{"source": "patent US20170067909A1", "about": "“ASSAY-READY RECOMBINANT CELLS TRANSIENTLY OVEREXPRESSING GENES ENCODING DRUG TRANSPORTER PROTEINS AND/OR DRUG METABOLIZING ENZYMES” (Corning Incorporated, priority 2012, published 2017)", "key": {"[1]": {"system": "dog Oatp1b4"}, "[2]": {"molecular_target": "T1, rat Oatp1b2 (Rattus norvegicus, UniProt Q9QZX8)", "T1 sequence (Q9QZX8 1-687)": "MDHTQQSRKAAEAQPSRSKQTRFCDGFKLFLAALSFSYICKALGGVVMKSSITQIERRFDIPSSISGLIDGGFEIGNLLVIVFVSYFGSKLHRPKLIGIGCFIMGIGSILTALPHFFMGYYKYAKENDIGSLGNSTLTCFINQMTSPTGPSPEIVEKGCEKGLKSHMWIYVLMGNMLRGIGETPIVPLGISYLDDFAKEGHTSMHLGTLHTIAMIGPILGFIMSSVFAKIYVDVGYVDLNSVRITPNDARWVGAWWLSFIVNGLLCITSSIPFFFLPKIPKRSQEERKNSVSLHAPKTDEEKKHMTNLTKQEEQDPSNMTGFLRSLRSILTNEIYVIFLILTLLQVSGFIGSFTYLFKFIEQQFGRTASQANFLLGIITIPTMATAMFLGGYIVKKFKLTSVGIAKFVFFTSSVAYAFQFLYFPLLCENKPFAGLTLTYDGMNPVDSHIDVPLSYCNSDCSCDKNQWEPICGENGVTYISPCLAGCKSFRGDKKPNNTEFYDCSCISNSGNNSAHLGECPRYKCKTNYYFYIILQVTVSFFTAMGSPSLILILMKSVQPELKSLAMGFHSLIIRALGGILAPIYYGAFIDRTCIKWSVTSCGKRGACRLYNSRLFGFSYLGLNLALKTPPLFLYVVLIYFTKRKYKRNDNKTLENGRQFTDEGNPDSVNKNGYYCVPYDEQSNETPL"}, "[3]": {"molecular_target": "T2, OCT1 (Homo sapiens, UniProt O15245)", "T2 sequence (O15245 whole entry)": "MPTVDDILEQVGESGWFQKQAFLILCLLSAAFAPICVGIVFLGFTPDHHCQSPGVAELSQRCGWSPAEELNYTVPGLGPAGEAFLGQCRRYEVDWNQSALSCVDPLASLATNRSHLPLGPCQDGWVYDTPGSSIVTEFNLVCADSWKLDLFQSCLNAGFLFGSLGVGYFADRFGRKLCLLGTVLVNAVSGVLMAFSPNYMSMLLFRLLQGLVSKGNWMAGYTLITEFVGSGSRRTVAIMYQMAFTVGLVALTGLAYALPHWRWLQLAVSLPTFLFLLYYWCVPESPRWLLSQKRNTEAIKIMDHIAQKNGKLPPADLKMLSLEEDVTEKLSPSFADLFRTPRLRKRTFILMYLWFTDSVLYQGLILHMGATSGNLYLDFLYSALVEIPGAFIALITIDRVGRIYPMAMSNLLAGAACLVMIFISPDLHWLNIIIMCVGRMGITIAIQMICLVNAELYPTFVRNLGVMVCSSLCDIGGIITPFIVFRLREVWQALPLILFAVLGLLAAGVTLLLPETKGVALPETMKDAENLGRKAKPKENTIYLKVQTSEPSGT", "conditions": "read-out: IC50, Literature Report; substrate Metformin; HEK293 Cells; Sumito I, et al., JPET, 2011; cited from earlier work"}, "[4]": {"molecular_target": "T2, OCT1"}, "[5]": {"molecular_target": "T3, OCT2 (Homo sapiens, UniProt O15244)", "T3 sequence (O15244 whole entry)": "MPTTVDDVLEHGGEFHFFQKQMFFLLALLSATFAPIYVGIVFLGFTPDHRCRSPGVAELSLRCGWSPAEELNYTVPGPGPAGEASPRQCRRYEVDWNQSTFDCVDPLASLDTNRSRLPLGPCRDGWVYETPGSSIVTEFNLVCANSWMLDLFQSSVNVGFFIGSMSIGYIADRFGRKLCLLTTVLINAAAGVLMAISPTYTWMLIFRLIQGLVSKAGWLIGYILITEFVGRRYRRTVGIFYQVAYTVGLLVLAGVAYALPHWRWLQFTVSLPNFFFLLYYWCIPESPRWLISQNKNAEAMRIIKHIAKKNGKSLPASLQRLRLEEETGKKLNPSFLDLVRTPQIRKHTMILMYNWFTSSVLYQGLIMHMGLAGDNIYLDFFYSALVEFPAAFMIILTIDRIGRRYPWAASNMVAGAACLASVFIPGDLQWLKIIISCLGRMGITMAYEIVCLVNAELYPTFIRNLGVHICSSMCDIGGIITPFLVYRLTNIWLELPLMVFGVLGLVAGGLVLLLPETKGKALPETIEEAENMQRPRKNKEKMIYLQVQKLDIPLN"}, "[6]": {"molecular_target": "T3, OCT2", "conditions": "read-out: IC50, Literature Report; substrate Metformin; HEK293 Cells; Sumito I, et al., JPET, 2011; cited from earlier work"}, "[7]": {"molecular_target": "MATE2K (Homo sapiens, UniProt Q86VL8)", "sequence (Q86VL8 1-566 isoform Q86VL8-3)": "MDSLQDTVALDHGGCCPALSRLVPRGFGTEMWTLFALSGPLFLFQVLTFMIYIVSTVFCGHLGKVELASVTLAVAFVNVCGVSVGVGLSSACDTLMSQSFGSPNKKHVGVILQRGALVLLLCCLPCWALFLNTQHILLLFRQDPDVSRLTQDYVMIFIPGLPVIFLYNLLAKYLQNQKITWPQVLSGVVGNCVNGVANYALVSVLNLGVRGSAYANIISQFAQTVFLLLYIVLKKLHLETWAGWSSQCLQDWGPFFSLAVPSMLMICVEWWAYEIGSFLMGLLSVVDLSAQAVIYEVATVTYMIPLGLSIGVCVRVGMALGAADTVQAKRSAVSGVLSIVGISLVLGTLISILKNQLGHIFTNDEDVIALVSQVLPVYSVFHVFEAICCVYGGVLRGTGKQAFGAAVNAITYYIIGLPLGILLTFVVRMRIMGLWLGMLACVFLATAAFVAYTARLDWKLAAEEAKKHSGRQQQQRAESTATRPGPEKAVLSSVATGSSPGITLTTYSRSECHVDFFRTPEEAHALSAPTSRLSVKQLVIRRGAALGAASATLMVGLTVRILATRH", "conditions": "5 min, 10 µM, pH 7.4"}, "[8]": {"molecular_target": "T4, MATE1 (Homo sapiens, UniProt Q96FL8)", "T4 sequence (Q96FL8 1-570)": "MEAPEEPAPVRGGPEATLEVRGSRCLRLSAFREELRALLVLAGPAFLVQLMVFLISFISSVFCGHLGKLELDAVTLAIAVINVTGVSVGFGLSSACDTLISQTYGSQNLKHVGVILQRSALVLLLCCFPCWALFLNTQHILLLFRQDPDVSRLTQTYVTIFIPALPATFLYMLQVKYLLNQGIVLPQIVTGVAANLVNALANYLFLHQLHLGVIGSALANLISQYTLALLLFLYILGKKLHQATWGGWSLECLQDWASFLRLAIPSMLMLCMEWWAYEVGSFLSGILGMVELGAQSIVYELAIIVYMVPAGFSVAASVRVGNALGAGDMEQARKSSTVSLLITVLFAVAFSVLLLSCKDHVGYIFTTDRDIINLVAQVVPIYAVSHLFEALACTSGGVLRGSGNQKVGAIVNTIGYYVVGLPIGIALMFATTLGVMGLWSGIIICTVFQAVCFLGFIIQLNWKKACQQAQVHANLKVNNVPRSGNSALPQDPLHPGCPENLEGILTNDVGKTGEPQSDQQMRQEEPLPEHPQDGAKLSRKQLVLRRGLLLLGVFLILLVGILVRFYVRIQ", "conditions": "5 min, 10 µM, pH 7.4"}, "[9]": {"molecular_target": "T5, OAT3 (Homo sapiens, UniProt Q8TCC7)", "T5 sequence (Q8TCC7 1-542)": "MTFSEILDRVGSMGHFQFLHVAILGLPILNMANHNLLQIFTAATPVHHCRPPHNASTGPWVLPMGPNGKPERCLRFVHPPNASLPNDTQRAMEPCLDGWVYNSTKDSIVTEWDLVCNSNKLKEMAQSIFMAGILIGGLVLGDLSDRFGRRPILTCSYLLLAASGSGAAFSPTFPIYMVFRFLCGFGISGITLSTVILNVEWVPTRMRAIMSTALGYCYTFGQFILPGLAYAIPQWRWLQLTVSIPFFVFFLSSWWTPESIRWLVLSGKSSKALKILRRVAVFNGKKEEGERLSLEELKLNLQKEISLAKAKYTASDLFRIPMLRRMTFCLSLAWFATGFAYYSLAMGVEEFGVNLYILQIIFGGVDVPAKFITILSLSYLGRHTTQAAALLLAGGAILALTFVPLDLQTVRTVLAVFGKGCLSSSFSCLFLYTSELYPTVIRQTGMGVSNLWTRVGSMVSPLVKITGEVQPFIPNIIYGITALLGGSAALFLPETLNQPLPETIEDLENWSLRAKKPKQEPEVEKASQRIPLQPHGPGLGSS", "conditions": "read-out: Km, Literature Report; HEK293 cells; Ueo H, et al., Biochem Pharmacol., 2005; cited from earlier work"}, "[10]": {"molecular_target": "T5, OAT3", "conditions": "read-out: Km, SLC Transporter Cells; substrate 0.5 to 32 μM, incubation 1 min"}, "[11]": {"molecular_target": "T6, OATP1B1*15 (Homo sapiens, UniProt Q9Y6L6, N130D/V174A)", "T6 sequence (Q9Y6L6 1-691 N130D/V174A)": "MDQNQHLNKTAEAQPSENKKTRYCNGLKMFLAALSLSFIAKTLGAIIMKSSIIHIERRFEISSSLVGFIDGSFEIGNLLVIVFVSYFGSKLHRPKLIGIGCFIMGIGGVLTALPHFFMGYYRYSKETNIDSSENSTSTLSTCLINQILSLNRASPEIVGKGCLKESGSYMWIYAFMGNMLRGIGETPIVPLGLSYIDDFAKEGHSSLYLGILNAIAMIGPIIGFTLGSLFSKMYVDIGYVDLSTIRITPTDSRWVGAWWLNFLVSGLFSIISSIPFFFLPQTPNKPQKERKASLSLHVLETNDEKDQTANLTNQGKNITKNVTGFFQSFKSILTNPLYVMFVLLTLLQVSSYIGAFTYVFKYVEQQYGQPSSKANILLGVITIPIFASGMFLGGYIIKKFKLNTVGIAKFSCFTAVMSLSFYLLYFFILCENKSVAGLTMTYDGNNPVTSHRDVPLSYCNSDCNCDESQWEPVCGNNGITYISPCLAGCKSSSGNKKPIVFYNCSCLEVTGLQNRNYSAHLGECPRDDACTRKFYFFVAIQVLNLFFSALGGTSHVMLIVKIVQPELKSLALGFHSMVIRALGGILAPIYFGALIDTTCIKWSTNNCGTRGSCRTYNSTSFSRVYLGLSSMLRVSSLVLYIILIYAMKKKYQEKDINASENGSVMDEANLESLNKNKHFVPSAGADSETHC", "conditions": "for uptake reduced to: human"}, "[12]": {"molecular_target": "T7, OATP1B1*5 (Homo sapiens, UniProt Q9Y6L6, V174A)", "T7 sequence (Q9Y6L6 1-691 V174A)": "T6 sequence (Q9Y6L6 1-691 N130D/V174A) with D130N"}, "[13]": {"system": "monkey Oatp1b1"}, "[14]": {"conditions": "HEK-293 cells overexpressing the transporter"}}, "note": "Numbering of substitutions follows the chain as printed. Where two headings read alike, the source gives them in different places.", "data": [{"compound": "CSCC[C@H](NC(=O)[C@H](Cc1ccc(OS(=O)(=O)O)cc1)NC(=O)[C@@H](N)CC(=O)O)C(=O)NCC(=O)N[C@@H](Cc1c[nH]c2ccccc12)C(=O)N[C@@H](CCSC)C(=O)N[C@@H](CC(=O)O)C(=O)N[C@@H](Cc1ccccc1)C(N)=O", "note": "[CCK-8, cholecystokinin]", "values": [{"measurement": "uptake of substrate (in words)", "setting": "[1]; [14]", "result": "significant uptake"}, {"measurement": "uptake of substrate (in words)", "setting": "[2]; [14]", "result": "significant uptake"}]}, {"compound": "CN/C(=N/CCSCc1nc[nH]c1C)NC#N", "note": "[Cimetidine]", "values": [{"measurement": "IC50", "setting": "[3]", "result": 104, "unit": "µM"}, {"measurement": "IC50", "setting": "[4]", "result": 230, "unit": "µM"}, {"measurement": "IC50", "setting": "[5]", "result": 195, "unit": "µM"}, {"measurement": "IC50", "setting": "[6]", "result": 124, "unit": "µM"}]}, {"compound": "CN(C)C(=N)N=C(N)N", "note": "[Metformin]", "values": [{"measurement": "UPTAKE ACTIVITY SLC transporter", "setting": "[7]", "result": 33.5, "unit": "pmol/mg/min"}, {"measurement": "Uptake Ratio", "setting": "[7]", "result": 6.5}, {"measurement": "UPTAKE ACTIVITY SLC transporter", "setting": "[8]", "result": 71.4, "unit": "pmol/mg/min"}, {"measurement": "Uptake Ratio", "setting": "[8]", "result": 12}]}, {"compound": "C[C@]12CC[C@@H]3c4ccc(OS(=O)(=O)O)cc4CC[C@H]3[C@@H]1CCC2=O", "note": "[E3S, Estrone-3-sulfate]", "values": [{"measurement": "Km", "setting": "[9]", "result": 6.3, "unit": "µM"}, {"measurement": "Km", "setting": "[10]", "result": 4, "unit": "µM"}]}, {"compound": "CC(C)c1c(C(=O)Nc2ccccc2)c(-c2ccccc2)c(-c2ccc(F)cc2)n1CC[C@@H](O)C[C@@H](O)CC(=O)O", "note": "[atorvastatin]", "values": [{"measurement": "uptake activity / transport compared to OATP1B1*1a cells (in words)", "setting": "[11]", "result": "Significant decrease in uptake activity"}, {"measurement": "uptake activity / transport compared to OATP1B1*1a cells (in words)", "setting": "[12]", "result": "Significant decrease in uptake activity"}]}, {"compound": "O=C(O)C[C@H](O)C[C@H](O)/C=C/c1c(C2CC2)nc2ccccc2c1-c1ccc(F)cc1", "note": "[pitavastatin]", "values": [{"measurement": "uptake reduced to", "setting": "[11]", "result": 40, "unit": "%"}]}, {"compound": "CC(C)c1nc(N(C)S(C)(=O)=O)nc(-c2ccc(F)cc2)c1/C=C/[C@@H](O)C[C@@H](O)CC(=O)O", "note": "[rosuvastatin]", "values": [{"measurement": "uptake of substrate (in words)", "setting": "[1]", "result": "significant uptake"}, {"measurement": "uptake of substrate (in words)", "setting": "[2]", "result": "significant uptake"}, {"measurement": "uptake of substrate (in words)", "setting": "[13]", "result": "significant uptake"}]}, {"compound": "CC(C)n1c(/C=C/C(O)CC(O)CC(=O)O)c(-c2ccc(F)cc2)c2ccccc21", "note": "(stereo not shown) [fluvastatin]", "values": [{"measurement": "uptake reduced to", "setting": "[11]", "result": "less than 5%"}]}]}
